In US20230263822A1, “MODULATION OF FACTOR 11 EXPRESSION” (Ionis Pharmaceuticals, Inc., priority 2008, published 2023):

Assay: Hematology assays in cynomolgus monkeys (Example 45)
Assay type: in vivo
Description: Groups, each consisting of two male and three female monkeys, were injected subcutaneously with ISIS 416838, ISIS 416850, ISIS 416858, ISIS 416864, or ISIS 417002 in escalating doses. Antisense oligonucleotide was administered to the monkeys at 5 mg/kg three times per a week for week 1; 5 mg/kg twice per week for weeks 2 and 3; 10 mg/kg three times per week for week 4; 10 mg/kg twice per week for weeks 5 and 6; 25 mg/kg three times per week for week 7; and 25 mg/kg twice per week for weeks 8, 9, 10, 11, and 12. One control group, consisting of two male and three female monkeys, was injected subcutaneously with PBS according to the same dosing regimen. An additional experimental group, consisting of two male and three female monkeys, was injected subcutaneously with ISIS 416850 in a chronic, lower dose regimen. Antisense oligonucleotide was administered to the monkeys at 5 mg/kg three times per week for week 1; 5 mg/kg twice per week for week 2 and 3; 10 mg/kg three times per week for week 4; and 10 mg/kg twice per week for weeks 5 to 12. Body weights were measured weekly. Blood samples were collected 14 days and 5 days before the start of treatment and subsequently once per week for Factor 11 protein activity analysis in plasma, fibrinogen measurement, PT and aPTT measurements, bleeding times, and measurement of various hematologic factors. On day 85, the monkeys were euthanized by exsanguination while under deep anesthesia, and organs harvested for further analysis.
The ISIS oligonucleotide, ISIS 416850, given with the chronic dose regimen is distinguished from the other oligonucleotides with an asterisk (*).

[1] = day 8, chronic dose regimen (*)
[2] = day 15, chronic dose regimen (*)
[3] = day 15, escalating dose regimen
[4] = day 22, chronic dose regimen (*)
[5] = day 22, escalating dose regimen
[6] = day 29, chronic dose regimen (*)
[7] = day 29, escalating dose regimen
[8] = day 36, chronic dose regimen (*)
[9] = day 36, escalating dose regimen
[10] = day 43, chronic dose regimen (*)
[11] = day 43, escalating dose regimen
[12] = day 50, chronic dose regimen (*)
[13] = day 50, escalating dose regimen
[14] = day 57, escalating dose regimen
[15] = day 64, escalating dose regimen
[16] = day 71, escalating dose regimen
[17] = day 78, escalating dose regimen
[18] = day 85, escalating dose regimen
[19] = day −5, chronic dose regimen (*)
[20] = day −5, escalating dose regimen
[21] = day −14, chronic dose regimen (*)
[22] = day −14, escalating dose regimen

ISIS 416850: MOE gapmer, nucleobases 1275 to 1318 of SEQ ID NO: 1 (Table 8) (antisense TGCACAGTTTCTGGCAGGCC; MOE gapmer, wing and gap sizes not given here)
MCH (Day 64, escalating dose regimen): 22 pg
MCH (Day 71, escalating dose regimen): 23 pg
MCH (Day 78, escalating dose regimen): 23 pg
MCH (Day 85, escalating dose regimen): 22 pg
basophils (day 8): 0.2%
eosinophils (day 8): 1.1%
lymphocytes (day 8): 39%
monocytes (day 8): 1.8%
neutrophils (day 8): 57%
platelet count (day 8): 548000 µL⁻¹
reticulocytes (day 8): 1.2%
MCH [1]: 23 pg
MCHC [1]: 29 g/dL
MCV [1]: 79 fL
RBC count [1]: 5.5e+06 µL⁻¹
WBC count [1]: 13000 µL⁻¹
basophils [1]: 0.3%
eosinophils [1]: 0.5%
hematocrit [1]: 43%
hemoglobin [1]: 12.5 g/dL
lymphocytes [1]: 44%
monocytes [1]: 1.8%
neutrophils [1]: 53%
platelet count [1]: 401000 µL⁻¹
reticulocytes [1]: 1.1%
MCH (day 8, escalating dose regimen): 23 pg
MCHC (day 8, escalating dose regimen): 29 g/dL
MCV (day 8, escalating dose regimen): 80 fL
RBC count (day 8, escalating dose regimen): 5.4e+06 µL⁻¹
WBC count (day 8, escalating dose regimen): 10000 µL⁻¹
hematocrit (day 8, escalating dose regimen): 43%
hemoglobin (day 8, escalating dose regimen): 12.4 g/dL
basophils (day 15): 0.2%
eosinophils (day 15): 1.0%
lymphocytes (day 15): 38%
monocytes (day 15): 2.0%
neutrophils (day 15): 58%
platelet count (day 15): 559000 µL⁻¹
reticulocytes (day 15): 1.9%
MCH [2]: 23 pg
MCHC [2]: 30 g/dL
MCV [2]: 75 fL
RBC count [2]: 5.3e+06 µL⁻¹
WBC count [2]: 16000 µL⁻¹
basophils [2]: 0.2%
eosinophils [2]: 0.2%
hematocrit [2]: 40%
hemoglobin [2]: 12.2 g/dL
lymphocytes [2]: 24%
monocytes [2]: 1.5%
neutrophils [2]: 73%
platelet count [2]: 396000 µL⁻¹
reticulocytes [2]: 1.0%
MCH [3]: 23 pg
MCHC [3]: 30 g/dL
MCV [3]: 76 fL
RBC count [3]: 5.3e+06 µL⁻¹
WBC count [3]: 9000 µL⁻¹
hematocrit [3]: 40%
hemoglobin [3]: 12.1 g/dL
basophils (day 22): 0.2%
eosinophils (day 22): 0.7%
lymphocytes (day 22): 39%
monocytes (day 22): 2.4%
neutrophils (day 22): 57%
platelet count (day 22): 466000 µL⁻¹
reticulocytes (day 22): 1.9%
MCH [4]: 23 pg
MCHC [4]: 29 g/dL
MCV [4]: 79 fL
RBC count [4]: 5.1e+06 µL⁻¹
WBC count [4]: 15000 µL⁻¹
basophils [4]: 0.1%
eosinophils [4]: 0.5%
hematocrit [4]: 40%
hemoglobin [4]: 11.7 g/dL
lymphocytes [4]: 33%
monocytes [4]: 1.9%
neutrophils [4]: 64%
platelet count [4]: 347000 µL⁻¹
reticulocytes [4]: 1.0%
MCH [5]: 24 pg
MCHC [5]: 28 g/dL
MCV [5]: 83 fL
RBC count [5]: 5e+06 µL⁻¹
WBC count [5]: 10000 µL⁻¹
hematocrit [5]: 41%
hemoglobin [5]: 11.6 g/dL
basophils (day 29): 0.2%
eosinophils (day 29): 1.2%
lymphocytes (day 29): 43%
monocytes (day 29): 2.7%
neutrophils (day 29): 53%
platelet count (day 29): 475000 µL⁻¹
reticulocytes (day 29): 2.5%
MCH [6]: 23 pg
MCHC [6]: 28 g/dL
MCV [6]: 82 fL
RBC count [6]: 5.2e+06 µL⁻¹
WBC count [6]: 14000 µL⁻¹
basophils [6]: 0.3%
eosinophils [6]: 0.8%
hematocrit [6]: 42%
hemoglobin [6]: 12.0 g/dL
lymphocytes [6]: 53%
monocytes [6]: 2.7%
neutrophils [6]: 42%
platelet count [6]: 370000 µL⁻¹
reticulocytes [6]: 1.4%
MCH [7]: 23 pg
MCHC [7]: 28 g/dL
MCV [7]: 83 fL
RBC count [7]: 4.9e+06 µL⁻¹
WBC count [7]: 11000 µL⁻¹
hematocrit [7]: 41%
hemoglobin [7]: 11.5 g/dL
basophils (day 36): 0.3%
eosinophils (day 36): 1.7%
lymphocytes (day 36): 39%
monocytes (day 36): 2.1%
neutrophils (day 36): 57%
platelet count (day 36): 505000 µL⁻¹
reticulocytes (day 36): 2.2%
MCH [8]: 23 pg
MCHC [8]: 30 g/dL
MCV [8]: 76 fL
RBC count [8]: 5.3e+06 µL⁻¹
WBC count [8]: 16000 µL⁻¹
basophils [8]: 0.1%
eosinophils [8]: 0.4%
hematocrit [8]: 41%
hemoglobin [8]: 12.3 g/dL
lymphocytes [8]: 26%
monocytes [8]: 1.5%
neutrophils [8]: 72%
platelet count [8]: 379000 µL⁻¹
reticulocytes [8]: 1.3%
MCH [9]: 23 pg
MCHC [9]: 29 g/dL
MCV [9]: 80 fL
RBC count [9]: 5.3e+06 µL⁻¹
WBC count [9]: 10000 µL⁻¹
hematocrit [9]: 42%
hemoglobin [9]: 12.2 g/dL
basophils (day 43): 0.3%
eosinophils (day 43): 1.2%
lymphocytes (day 43): 45%
monocytes (day 43): 2.6%
neutrophils (day 43): 50%
platelet count (day 43): 490000 µL⁻¹
reticulocytes (day 43): 1.6%
MCH [10]: 23 pg
MCHC [10]: 30 g/dL
MCV [10]: 77 fL
RBC count [10]: 5.2e+06 µL⁻¹
WBC count [10]: 15000 µL⁻¹
basophils [10]: 0.2%
eosinophils [10]: 0.4%
hematocrit [10]: 40%
hemoglobin [10]: 11.8 g/dL
lymphocytes [10]: 36%
monocytes [10]: 1.8%
neutrophils [10]: 61%
platelet count [10]: 391000 µL⁻¹
reticulocytes [10]: 1.0%
MCH [11]: 23 pg
MCHC [11]: 29 g/dL
MCV [11]: 79 fL
RBC count [11]: 5.2e+06 µL⁻¹
WBC count [11]: 9000 µL⁻¹
hematocrit [11]: 40%
hemoglobin [11]: 11.8 g/dL
basophils (day 50): 0.3%
eosinophils (day 50): 1.2%
lymphocytes (day 50): 49%
monocytes (day 50): 3.7%
neutrophils (day 50): 45%
platelet count (day 50): 487000 µL⁻¹
reticulocytes (day 50): 2.7%
MCH [12]: 23 pg
MCHC [12]: 29 g/dL
MCV [12]: 80 fL
RBC count [12]: 5.3e+06 µL⁻¹
WBC count [12]: 15000 µL⁻¹
basophils [12]: 0.2%
eosinophils [12]: 0.3%
hematocrit [12]: 42%
hemoglobin [12]: 11.9 g/dL
lymphocytes [12]: 35%
monocytes [12]: 1.8%
neutrophils [12]: 62%
platelet count [12]: 351000 µL⁻¹
reticulocytes [12]: 1.2%
MCH [13]: 23 pg
MCHC [13]: 28 g/dL
MCV [13]: 83 fL
RBC count [13]: 5.2e+06 µL⁻¹
WBC count [13]: 11000 µL⁻¹
hematocrit [13]: 42%
hemoglobin [13]: 11.8 g/dL
basophils (day 57): 0.4%
eosinophils (day 57): 1.0%
lymphocytes (day 57): 45%
monocytes (day 57): n.d.3.2%
neutrophils (day 57): 49%
platelet count (day 57): 528000 µL⁻¹
reticulocytes (day 57): 2.0%
MCH [14]: 23 pg
MCHC [14]: 29 g/dL
MCV [14]: 80 fL
RBC count [14]: 5.2e+06 µL⁻¹
WBC count [14]: 11000 µL⁻¹
hematocrit [14]: 42%
hemoglobin [14]: 12.1 g/dL
basophils (day 64): 0.4%
eosinophils (day 64): 1.3%
lymphocytes (day 64): 53%
monocytes (day 64): n.d.3.5%
neutrophils (day 64): 41%
platelet count (day 64): 496000 µL⁻¹
reticulocytes (day 64): 1.7%
MCHC [15]: 29 g/dL
MCV [15]: 79 fL
RBC count [15]: 5.4e+06 µL⁻¹
WBC count [15]: 11000 µL⁻¹
hematocrit [15]: 43%
hemoglobin [15]: 12.3 g/dL
basophils (day 71): 0.3%
eosinophils (day 71): 1.8%
lymphocytes (day 71): 61%
monocytes (day 71): n.d.4.7%
neutrophils (day 71): 27%
platelet count (day 71): 465000 µL⁻¹
reticulocytes (day 71): 1.8%
MCHC [16]: 28 g/dL
MCV [16]: 80 fL
RBC count [16]: 5.4e+06 µL⁻¹
WBC count [16]: 15000 µL⁻¹
hematocrit [16]: 43%
hemoglobin [16]: 12.3 g/dL
basophils (day 78): 0.3%
eosinophils (day 78): 1.0%
lymphocytes (day 78): 51%
monocytes (day 78): n.d.4.5%
neutrophils (day 78): 42%
platelet count (day 78): 449000 µL⁻¹
reticulocytes (day 78): 1.8%
MCHC [17]: 29 g/dL
MCV [17]: 79 fL
RBC count [17]: 5.3e+06 µL⁻¹
WBC count [17]: 12000 µL⁻¹
hematocrit [17]: 41%
hemoglobin [17]: 12.2 g/dL
basophils (day 85): 0.3%
eosinophils (day 85): 1.2%
lymphocytes (day 85): 34%
monocytes (day 85): n.d.3.5%
neutrophils (day 85): 60%
platelet count (day 85): 458000 µL⁻¹
reticulocytes (day 85): 2.3%
MCHC [18]: 30 g/dL
MCV [18]: 77 fL
RBC count [18]: 5.5e+06 µL⁻¹
WBC count [18]: 15000 µL⁻¹
hematocrit [18]: 42%
hemoglobin [18]: 12.7 g/dL
basophils (day −5): 0.2%
eosinophils (day −5): 1.6%
lymphocytes (day −5): 43%
monocytes (day −5): 2.8%
neutrophils (day −5): 52%
platelet count (day −5): 573000 µL⁻¹
reticulocytes (day −5): 1.2%
MCH [19]: 23 pg
MCHC [19]: 30 g/dL
MCV [19]: 78 fL
RBC count [19]: 5.5e+06 µL⁻¹
WBC count [19]: 15000 µL⁻¹
basophils [19]: 0.3%
eosinophils [19]: 0.7%
hematocrit [19]: 43%
hemoglobin [19]: 12.8 g/dL
lymphocytes [19]: 43%
monocytes [19]: 2.4%
neutrophils [19]: 53%
platelet count [19]: 434000 µL⁻¹
reticulocytes [19]: 0.8%
MCH [20]: 23 pg
MCHC [20]: 30 g/dL
MCV [20]: 77 fL
RBC count [20]: 5.5e+06 µL⁻¹
WBC count [20]: 13000 µL⁻¹
hematocrit [20]: 43%
hemoglobin [20]: 12.7 g/dL
basophils (day −14): 0.2%
eosinophils (day −14): 1.0%
lymphocytes (day −14): 47%
monocytes (day −14): 2.3%
neutrophils (day −14): 49%
platelet count (day −14): 528000 µL⁻¹
reticulocytes (day −14): 1.7%
MCH [21]: 24 pg
MCHC [21]: 29 g/dL
MCV [21]: 81 fL
RBC count [21]: 5.5e+06 µL⁻¹
WBC count [21]: 15000 µL⁻¹
basophils [21]: 0.2%
eosinophils [21]: 0.5%
hematocrit [21]: 44%
hemoglobin [21]: 12.8 g/dL
lymphocytes [21]: 47%
monocytes [21]: 2.9%
neutrophils [21]: 48%
platelet count [21]: 387000 µL⁻¹
reticulocytes [21]: 1.1%
MCH [22]: 23 pg
MCHC [22]: 30 g/dL
MCV [22]: 78 fL
RBC count [22]: 5.3e+06 µL⁻¹
WBC count [22]: 13000 µL⁻¹
hematocrit [22]: 41%
hemoglobin [22]: 12.4 g/dL
